Data on 27 compounds can be found in patent US7879857B2, “6-substituted 2-quinolinones and 2-quinoxalinones as poly (adp-ribose) polymerase inhibitors” (Janssen Pharmaceutica NV, priority 2003, dated 2011).

The conditions of series [1]: rabbits, cited from earlier work.
For series [2] the following is noted: rats with hapten-induced colitis; cited from earlier work.
Series [3] has as its target T1, PARP-1 enzyme (Homo sapiens, UniProt P09874).
T1 construct: made in house
The series can be described thus: In vitro Scintillation Proximity Assay (SPA) for PARP-1 inhibitory activity. The series is classed as biochemical. Particulars: [3H]-NAD+ as ADP-ribosyl donor, biotinylated histones, nicked DNA; read-out: In vitro SPA pIC50 (converted). Here is the method: Pharmacological Example In Vitro Scintillation Proximity Assay (SPA) for PARP-1 Inhibitory Activity
Compounds of the present invention were tested in an in vitro assay based on SPA technology (proprietary to Amersham Phannacia Biotech).
In principle, the assay relies upon the well established SPA technology for the detection of poly(ADP-ribosyl)ation of biotinylated target proteins, i.e histones. This ribosylation is induced using nicked DNA activated PARP-1 enzyme and [^3H]-nicotinamide adenine dinucleotide ([^3H]-NAD^+) as ADP-ribosyl donor.
As inducer of PARP-1 enzyme activity, nicked DNA was prepared. For this, 25 mg of DNA (supplier: Sigma) was dissolved in 25 ml DNAse buffer (10 mM Tris-HCI, pH 7.4; 0.5 mg/ml Bovine Serum Albumine (BSA); 5 MM MgCl2.6H2O and 1 mM KCl) to which 50 μl DNAse solution (1 mg/ml in 0.15 M NaCl) was added. After an incubation of 90 min. at 37° C., the reaction was terminated by adding 1.45 g NaCl, followed by a further incubation at 58° C. for 15 min. The reaction mixture was cooled on ice and dialysed at 4° C. for respectively 1.5 and 2 hours against 1.51 of 0.2 M KCl, and twice against 1.51 of 0.01 M KCl for 1.5 and 2 h respectively. The mixture was aliquoted and stored at −20° C. Histones (1 mg/ml, type II-A, supplier: Sigma) were biotinylated using the biotinylation kit of Amersham and stored aliquoted at −20° C. A stock solution of 100 mg/ml SPA poly(vinyl toluene) (PVT) beads (supplier: Amersham) was made in PBS. A stock solution of [^3H]-NAD^+ was made by adding 120 μl of [^3H]-NAD^+ (0.1 mCi/ml, supplier: NEN) to 6 ml incubation buffer (50 mM Tris/HCl, pH 8; 0.2 mM DTT; 4 mM MgCl2). A solution of 4 mM NAD^+ (supplier: Roche) was made in incubation buffer (from a 100 mM stock solution in water stored at −20° C.). The PARP-1 enzyme was produced using art known techniques, i.e. cloning and expression of the protein starting from human liver cDNA. Information concerning the used protein sequence of the PARP-1 enzyme including literature references can be found in the Swiss-Prot database under primary accession number P09874. Biotinylated histones and PVT-SPA beads were mixed and pre-incubated for 30 min. at room temperature. PARP-1 enzyme (concentration was lot dependent) was mixed with the nicked DNA and the mixture was pre-incubated for 30 min. at 4° C. Equal parts of this histones/PVT-SPA beads solution and PARP-1 enzyme/DNA solution were mixed and 75 μl of this mixture together with 1 μl of compound in DMSO and 25 μl of [^3H]-NAD^+ was added per well into a 96-well microtiterplate. The final concentrations in the incubation mixture were 2 μg/ml for the biotinylated histones, 2 mg/ml for the PVT-SPA beads, 2 μg/ml for the nicked DNA and between 5-10 μg/ml for the PARP-1 enzyme. After incubation of the mixture for 15 min. at room temperature, the reaction was terminated by adding 100 μl of 4 mM NAD^+ in incubation buffer (final concentration 2 mM) and plates were mixed.
The beads were allowed to sediment for at least 15 min. and plates transferred to a TopCountNXTT™ (Packard) for scintillation counting, values were expressed as counts per minute (cpm). For each experiment, controls (containing PARP-1 enzyme and DMSO without compound), a blank incubation (containing DMSO but no PARP-1 enzyme or compound) and samples (containing PARP-1 enzyme and compound dissolved in DMSO) were run in parallel. All compounds tested were dissolved and eventually further diluted in DMSO. […] The control sample represented maximal PARP-1 enzyme activity. For each sample, the amount of cpm was expressed as a percentage of the mean cpm value of the controls. When appropriate, IC50-values (concentration of the drug, needed to reduce the PARP-1 enzyme activity to 50% of the control) were computed using linear interpolation between the experimental points just above and below the 50% level. Herein the effects of test compounds are expressed as pIC50(the negative log value of the IC50-value). […]

The target in series [4] is T1, PARP-1 enzyme. Kind of series: In vitro filtration assay for PARP-1 inhibitory activity. The series is classed as biochemical. Particulars: [32P]-NAD as ADP-ribosyl donor, histones, nicked DNA; read-out: In vitro filtration assay pIC50 (converted). Here is the method:
In Vitro Filtration Assay for PARP-1 Inhibitory Activity
Compounds of the present invention were tested in an in vitro filtration assay assessing PARP-1 activity (triggered in the presence of nicked DNA) by means of its histone poly (ADP-ribosyl)ation activity using [^32P]-NAD as ADP-ribosyl donor. The radioactive ribosylated histones were precipitated by trichIoroacetic acid (TCA) in 96-well filterplates and the incorporated [^32P] measured using a scintillation counter
A mixture of histones (stock solution: 5 mg/ml in H2O), NAD^+ (stock solution: 100 mM in H2O), and [^32P]-NAD^+ in incubation buffer (50 mM Tris/HCl, pH 8; 0.2 mM DTT; 4 mM MgCl2) was made. A mixture of the PARP-1 enzyme (5-10 μg/ml) and nicked DNA was also made. The nicked DNA was prepared as described in the in vitro SPA for PARP-1 inhibitory activity. Seventy-five μl of the PARP-1 enzyme/DNA mixture together with 1 μl of compound in DMSO and 25 μl of histones-NAD^+/[^32P]-NAD^+ mixture was added per well of a 96-well filterplate (0.45 μm, supplier Millipore). The final concentrations in the incubation mixture were 2 μg/ml for the histones, 0.1 mM for the NAD^+, […] (0.5 μC) for the [^32P]-NAD^+ and 2 μg/ml for the nicked DNA. Plates were incubated for 15 min. at room temperature and the reaction was terminated by the addition of 10 μl ice cold 100% TCA followed by the addition of 10 μl ice-cold BSA solution (1% in H2O). The protein fraction was allowed to precipitate for 10 min. at 4° C. and plates were vacuum filtered. The plates were subsequently washed with, for each well, 1 ml of 10% ice cold TCA, 1 ml of 5% ice cold TCA and 1 ml of 5% TCA at room temperature. Finally 100 μl of scintillation solution (Microscint 40, Packard) was added to each well and the plates were transferred to a TopCountNXT™ (supplier: Packard) for scintillation counting and values were expressed as counts per minute (cpm). For each experiment, controls (containing PARP-1 enzyme and DMSO without compound), a blank incubation (containing DMSO but no PARP-1 enzyme or compound) and samples (containing PARP-1 enzyme and compound dissolved in DMSO) were run in parallel. All compounds tested were dissolved and eventually further diluted in DMSO. […] The control sample represented maximal PARP-1 enzyme activity. For each sample, the amount of cpm was expressed as a percentage of the mean cpm value of the controls. When appropriate, IC50-values (concentration of the drug, needed to reduce the PARP-1 enzyme activity to 50% of the control) were computed using linear interpolation between the experimental points just above and below the 50% level. Herein the effects of test compounds are expressed as pIC50 (the negative log value of the IC50-value). As a reference compound, 4-amino-1,8-naphthalimide was included to validate the filtration assay.

Structures are written as SMILES.

T1 sequence (P09874 whole entry): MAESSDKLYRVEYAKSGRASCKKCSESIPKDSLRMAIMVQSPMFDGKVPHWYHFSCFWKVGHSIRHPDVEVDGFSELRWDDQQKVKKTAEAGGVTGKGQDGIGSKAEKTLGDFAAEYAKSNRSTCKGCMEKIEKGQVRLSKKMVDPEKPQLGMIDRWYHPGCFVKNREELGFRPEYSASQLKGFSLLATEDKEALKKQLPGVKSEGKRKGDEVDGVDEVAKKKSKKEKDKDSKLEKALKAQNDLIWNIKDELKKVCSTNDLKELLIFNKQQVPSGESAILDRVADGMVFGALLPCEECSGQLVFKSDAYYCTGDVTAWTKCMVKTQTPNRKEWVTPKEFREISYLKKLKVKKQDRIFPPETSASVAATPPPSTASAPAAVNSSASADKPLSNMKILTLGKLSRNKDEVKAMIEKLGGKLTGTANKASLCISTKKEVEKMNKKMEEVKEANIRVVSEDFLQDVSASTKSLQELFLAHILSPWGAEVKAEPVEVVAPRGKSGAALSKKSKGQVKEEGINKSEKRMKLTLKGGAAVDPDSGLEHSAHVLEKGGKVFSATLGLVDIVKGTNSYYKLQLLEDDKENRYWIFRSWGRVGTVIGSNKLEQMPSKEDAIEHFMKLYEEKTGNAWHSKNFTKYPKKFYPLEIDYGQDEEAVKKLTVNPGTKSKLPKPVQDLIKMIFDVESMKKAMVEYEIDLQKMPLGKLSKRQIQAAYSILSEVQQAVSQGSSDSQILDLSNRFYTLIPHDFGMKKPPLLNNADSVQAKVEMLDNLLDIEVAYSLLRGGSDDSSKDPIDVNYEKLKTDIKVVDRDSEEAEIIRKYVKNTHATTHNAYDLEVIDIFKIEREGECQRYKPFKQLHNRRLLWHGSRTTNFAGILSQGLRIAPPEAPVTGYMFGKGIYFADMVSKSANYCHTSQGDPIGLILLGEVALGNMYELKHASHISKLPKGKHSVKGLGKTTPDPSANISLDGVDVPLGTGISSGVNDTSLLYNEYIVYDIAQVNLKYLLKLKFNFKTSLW

As to `Oc1cccc2c(O)nccc12` [1,5-dihydroxyisoquinoline], the “reduction in infarct size” value in series [1] (single injection 1 mg/kg) is 38-48%.
Consider `NC(=O)c1cccc(N)c1` [3-amino-benzamide], for which the “reduction in infarct size in the heart” value in series [1] (single injection 10 mg/kg, one minute before occlusion or one minute before reperfusion) is 32-42%. Moreover, in series [2], the “effect on inflammatory response, morphology and energetic status of the distal colon” value was “reduced the inflammatory response and restored the morphology and the energetic status of the distal colon”.
In turn, `CCc1nc2cc(C(NC=O)C(C)C)ccc2[nH]c1=O` (stereo not shown) [Compound 1] showed a melting point of 204 °C. Besides, at PARP-1 enzyme [3], the IC50 was 221 nM.
Consider `Cc1cc2cc(C(C(C)C)n3ccnc3)ccc2[nH]c1=O` (stereo not shown) [Compound 2], for which the melting point amounted to 211.4 °C. On PARP-1 enzyme [3], the IC50 is 522 nM. On PARP-1 enzyme [4], the IC50 is 5350 nM.
The corresponding values for `CCc1cc2cc(C(=O)CN(C)C)ccc2[nH]c1=O` [Compound 3] are 180 °C, 259 nM and 2590 nM.
Consider `Cc1cc2cc(C(CCN(C)C)c3ccco3)ccc2[nH]c1=O` (stereo not shown) [Compound 4], for which the figures for the IC50 at PARP-1 enzyme [3] and on PARP-1 enzyme [4] were 1040 nM and 7570 nM, respectively.
Regarding `CCc1cc2cc(C(O)C(CC)CC)ccc2[nH]c1=O` (stereo not shown) [Compound 5], the IC50 at PARP-1 enzyme [3] is 156 nM; at PARP-1 enzyme [4], 638 nM.
Compound `Cc1cc2cc(C(CCc3ccccc3)NC=O)ccc2[nH]c1=O` (stereo not shown) [Compound 6] showed a melting point of 221.3 °C. Further, the IC50 on PARP-1 enzyme [3] is 769 nM. Further, at PARP-1 enzyme [4], the IC50 was 10000 nM.
The corresponding values for `CCc1cc2cc(C(O)CN(C)C)ccc2[nH]c1=O` (stereo not shown) [Compound 7] are 131 °C, 212 nM and 773 nM.
As to `CCOC(=O)Cc1ccc2[nH]c(=O)c(CC)nc2c1` [Compound 8], the IC50 at PARP-1 enzyme [3] is 975 nM.
As to `CCc1nc2cc(C(=O)C(C)C)ccc2[nH]c1=O` [Compound 9], the IC50 on PARP-1 enzyme [3] is 743 nM.
Turning to `CCc1nc2cc(C(NCCN3CCC(C(=O)c4ccc(F)cc4)CC3)C(C)C)ccc2[nH]c1=O` (stereo not shown) [Compound 10], the IC50 on PARP-1 enzyme [3] is 740 nM.
With `CCc1cc2cc(CCNCCCN3CCCCC3)ccc2[nH]c1=O` [Compound 11], the IC50 at PARP-1 enzyme [3] was 327 nM.
For `CCc1cc2cc(CCNCCCN(C)Cc3ccccc3)ccc2[nH]c1=O` [Compound 12], the IC50 on PARP-1 enzyme [3] was 687 nM.
On to `CCc1nc2cc(C(NCCCN3CCCCC3)C(C)C)ccc2[nH]c1=O` (stereo not shown) [Compound 13], for which the IC50 at PARP-1 enzyme [3] was 368 nM.
For the compound `CCc1nc2cc(C(NCCCN(C)Cc3ccccc3)C(C)C)ccc2[nH]c1=O` (stereo not shown) [Compound 14], on PARP-1 enzyme [3], the IC50 was 499 nM.
As for `Cc1cc2cc(C(NCCCN3CCCCC3)C(C)C)ccc2[nH]c1=O` (stereo not shown) [Compound 15], the IC50 was 1260 nM at PARP-1 enzyme [3] and 3620 nM at PARP-1 enzyme [4].
Regarding `Cc1cc2cc(C(O)(CCN(C)C)c3ccccn3)ccc2[nH]c1=O` (stereo not shown) [Compound 16], the IC50 at PARP-1 enzyme [3] is 470 nM; at PARP-1 enzyme [4], 2160 nM.
For the compound `CCc1cc2cc(C(O)C3CC=CCC3)ccc2[nH]c1=O` (stereo not shown) [Compound 17], the IC50 is 198 nM at PARP-1 enzyme [3] and 1470 nM at PARP-1 enzyme [4].
As for `Cc1cc2cc(C(C)NC=O)ccc2[nH]c1=O` (stereo not shown) [Compound 18], the results for the IC50 on PARP-1 enzyme [3] and on PARP-1 enzyme [4] were 1020 nM and 6370 nM, respectively.
Regarding `CCc1nc2cc(C(O)C(C)C)ccc2[nH]c1=O` (stereo not shown) [Compound 19], the IC50 at PARP-1 enzyme [3] is 746 nM.
In the case of `CCc1nc2cc(C(C(C)C)n3cncn3)ccc2[nH]c1=O` (stereo not shown) [Compound 20, 3-ethyl-6-[2-methyl-1-(1H-1,2,4-triazol-1-yl)propyl]-2(1H)-quinoxalinone], the IC50 was 438 nM at PARP-1 enzyme [3] and 2280 nM at PARP-1 enzyme [4].
`CCc1nc2cc(C(C(C)C)n3ccnc3)ccc2[nH]c1=O` (stereo not shown) [Compound 21, 3-ethyl-6-[1-(1H-imidazol-1-yl)-2-methylpropyl]-2(1H)-quinoxalinone]: the IC50 at PARP-1 enzyme [3] was 227 nM; on PARP-1 enzyme [4], 1100 nM.
On to `CC(C)C(c1ccc2[nH]c(=O)c(-c3cccs3)nc2c1)n1cncn1` (stereo not shown) [Compound 22, 6-[2-methyl-1-(1H-1,2,4-triazol-1-yl)propyl]-3-(2-thienyl)-2(1H)-quinoxalinone], for which the IC50 on PARP-1 enzyme [3] is 838 nM; on PARP-1 enzyme [4], 4330 nM.
For the compound `CC(C)C(c1ccc2[nH]c(=O)c(-c3ccsc3)nc2c1)n1cncn1` (stereo not shown) [Compound 23, 6-[2-methyl-1-(1H-1,2,4-triazol-1-yl)propyl]-3-(thienyl)-2(1H)-quinoxalinone], the IC50 on PARP-1 enzyme [3] is 1430 nM; at PARP-1 enzyme [4] it was 7130 nM.
Regarding `CC(C)C(c1ccc2[nH]c(=O)c(-c3ccsc3)nc2c1)n1ccnc1` (stereo not shown) [Compound 24, 6-[1-(1H-imidazol-1-yl)-2-methylpropyl]-3-(3-thienyl)-2(1H)-quinoxalinone], the IC50 was 561 nM at PARP-1 enzyme [3] and 4860 nM at PARP-1 enzyme [4].
Take `CCCCC(c1ccc2[nH]c(=O)c(C)nc2c1)n1ccnc1` (stereo not shown) [Compound 25, 6-[1-(1H-imidazol-1-yl)pentyl]-3-methyl-2(1H)-quinoxalinone]: the values for the IC50 on PARP-1 enzyme [3] and on PARP-1 enzyme [4] were 1000 nM and 4630 nM, respectively.
